SMILES strings stand for the structures.

The values below come from US20150191469A1, “COMPOUNDS AND METHODS FOR TREATING HIV” (priority 2012, published 2015).

The assay has as its system HIV. Nature of the assay: MT4 assay: antiviral HIV activity (cell protection, cell titer glo readout at 96 hours). It is filed as cell-based. To be noted: Human immunodeficiency virus 1, MT4, 96 h, MT4 cells, cell titer glo readout at 96 hours, 10 point dose response; read-out: HIV MT4 Assay IC50. As to the method: Antiviral HIV activity and cytotoxicity values for compounds of the invention from Table 1 were measured in parallel in the HTLV-1 transformed cell line MT-4 based on the method previously described (Hazen et al., 2007, In vitro antiviral activity of the novel, tyrosyl-based human immunodeficiency virus (HIV) type 1 protease inhibitor brecanavir (GW640385) in combination with other antiretrovirals and against a panel of protease inhibitor-resistant HIV (Hazen et al., “In vitro antiviral activity of the novel, tyrosyl-based human immunodeficiency virus (HIV) type 1 protease inhibitor brecanavir (GW640385) in combination with other antiretrovirals and against a panel of protease inhibitor-resistant HIV”, Antimicrob. Agents Chemother. 2007, 51: 3147-3154; and Pauwels et al., “Sensitive and rapid assay on MT-4 cells for the detection of antiviral compounds against the AIDS virus”, J. of Virological Methods 1987, 16: 171-185).
Luciferase activity was measured 96 hours later by adding a cell titer glo (Promega, Madison, Wis.). Percent inhibition of cell protection data was plotted relative to no compound control. Under the same condition, cytotoxicity of the compounds was determined using cell titer Glo™ (Promega, Madison, Wis.). IC50s were determined from a 10 point dose response curve using 3-4-fold serial dilution for each compound, which spans a concentration range >1000 fold.
These values are plotted against the molar compound concentrations using the standard four parameter logistic equation:
y=((Vmax*x̂n)/(K̂n+x̂n))+Y2
Y2=minimum y n=slope factor
Vmax=maximum y x=compound concentration [M]
Turning to `Cc1nc2c(cc(-c3ccnc(N4CCN(c5ccccc5)CC4)c3)n2C)c(-c2cc(F)c3c(c2C)CCCO3)c1[C@H](OC(C)(C)C)C(=O)O` (atropisomer, axis not shown) [Example 83], the half-inhibitory concentration (IC50) (usually the concentration at which inhibition is half-maximal) came to 52.5 nM.
The result for `Cc1nc2c(cc(-c3ccnc(N4CCN(c5nccs5)CC4)c3)n2C)c(-c2cc(F)c3c(c2C)CCCO3)c1[C@H](OC(C)(C)C)C(=O)O` (atropisomer, axis not shown) [Example 84] reads 14.7 nM; that for `Cc1nc2c(cc(-c3ccnc(N4CCCN(C5COC5)CC4)c3)n2C)c(-c2cc(F)c3c(c2C)CCCO3)c1[C@H](OC(C)(C)C)C(=O)O` (atropisomer, axis not shown) [Example 85], 12.7 nM.
Take `COC1CCN(c2cc(-c3cc4c(-c5cc(F)c6c(c5C)CCCO6)c([C@H](OC(C)(C)C)C(=O)O)c(C)nc4n3C)ccn2)CC1` (atropisomer, axis not shown) [Example 86]: the IC50 came out at 13.2 nM.
Under `Cc1nc2c(cc(-c3ccnc(N4CCC(N(C)C)CC4)c3)n2C)c(-c2cc(F)c3c(c2C)CCCO3)c1[C@H](OC(C)(C)C)C(=O)O` (atropisomer, axis not shown) [Example 87] stands 42.8 nM.
For the compound `Cc1nc2c(cc(-c3ccnc(N4CCN(c5ccncc5)CC4)c3)n2C)c(-c2cc(F)c3c(c2C)CCCO3)c1[C@H](OC(C)(C)C)C(=O)O` (atropisomer, axis not shown) [Example 88], the IC50 is 13.4 nM.
The result for `CC(=O)N1CCN(c2cc(-c3cc4c(-c5cc(F)c6c(c5C)CCCO6)c([C@H](OC(C)(C)C)C(=O)O)c(C)nc4n3C)ccn2)CC1` (atropisomer, axis not shown) [Example 89] reads 25 nM.
Under `Cc1nc2c(cc(-c3ccnc(N4CCN(c5ccccn5)CC4)c3)n2C)c(-c2cc(F)c3c(c2C)CCCO3)c1[C@H](OC(C)(C)C)C(=O)O` (atropisomer, axis not shown) [Example 90] stands 13.3 nM; under `Cc1nc2c(cc(-c3ccnc(N4CCN(C5CCCC5)CC4)c3)n2C)c(-c2cc(F)c3c(c2C)CCCO3)c1[C@H](OC(C)(C)C)C(=O)O` (atropisomer, axis not shown) [Example 91], 12.2 nM; under `Cc1nc2c(cc(-c3ccnc(N4CCN(S(C)(=O)=O)CC4)c3)n2C)c(-c2cc(F)c3c(c2C)CCCO3)c1[C@H](OC(C)(C)C)C(=O)O` (atropisomer, axis not shown) [Example 92], 19.6 nM.
The result for `Cc1nc2c(cc(-c3ccnc(N4CCN(c5ncccn5)CC4)c3)n2C)c(-c2cc(F)c3c(c2C)CCCO3)c1[C@H](OC(C)(C)C)C(=O)O` (atropisomer, axis not shown) [Example 93] reads 23.9 nM.
`Cc1nc2c(cc(-c3ccnc(N4CCCN(C)CC4)c3)n2C)c(-c2cc(F)c3c(c2C)CCCO3)c1[C@H](OC(C)(C)C)C(=O)O` (atropisomer, axis not shown) [Example 94]: the IC50 stood at 50.8 nM.
On to `CC(=O)N1CCCN(c2cc(-c3cc4c(-c5cc(F)c6c(c5C)CCCO6)c([C@H](OC(C)(C)C)C(=O)O)c(C)nc4n3C)ccn2)CC1` (atropisomer, axis not shown) [Example 95], for which the IC50 turned out to be 52.4 nM.
The result for `Cc1nc2c(cc(-c3ccnc(N4CCCNCC4)c3)n2C)c(-c2cc(F)c3c(c2C)CCCO3)c1[C@H](OC(C)(C)C)C(=O)O` (atropisomer, axis not shown) [Example 96] reads 350 nM; that for `Cc1nc2c(cc(-c3ccnc(N4CCCN(S(C)(=O)=O)CC4)c3)n2C)c(-c2cc(F)c3c(c2C)CCCO3)c1[C@H](OC(C)(C)C)C(=O)O` (atropisomer, axis not shown) [Example 97], 16.5 nM; that for `Cc1nc2c(cc(-c3ccnc(N4CCCN(C(C)C)CC4)c3)n2C)c(-c2cc(F)c3c(c2C)CCCO3)c1[C@H](OC(C)(C)C)C(=O)O` (atropisomer, axis not shown) [Example 98], 16.2 nM.
Under `Cc1nc2c(cc(-c3ccnc(N4C[C@H]5CC[C@@H]4C5)c3)n2C)c(-c2cc(F)c3c(c2C)CCCO3)c1[C@H](OC(C)(C)C)C(=O)O` (atropisomer, axis not shown) [Example 99] stands 14.8 nM; under `CC1=CCN(c2cc(-c3cc4c(-c5cc(F)c6c(c5C)CCCO6)c([C@H](OC(C)(C)C)C(=O)O)c(C)nc4n3C)ccn2)CC1` (atropisomer, axis not shown) [Example 100], 14.2 nM; under `Cc1nc2c(cc(-c3ccnc(N4CCCN(C(=O)C5CCCC5)CC4)c3)n2C)c(-c2cc(F)c3c(c2C)CCCO3)c1[C@H](OC(C)(C)C)C(=O)O` (atropisomer, axis not shown) [Example 101], 67.4 nM.
The result for `Cc1nc2c(cc(-c3ccnc(N4CCCN(C(=O)C(C)C)CC4)c3)n2C)c(-c2cc(F)c3c(c2C)CCCO3)c1[C@H](OC(C)(C)C)C(=O)O` (atropisomer, axis not shown) [Example 102] reads 45 nM; that for `COCCN1CCCN(c2cc(-c3cc4c(-c5cc(F)c6c(c5C)CCCO6)c([C@H](OC(C)(C)C)C(=O)O)c(C)nc4n3C)ccn2)CC1` (atropisomer, axis not shown) [Example 103], 45 nM.
For `Cc1nc2c(cc(-c3ccnc(N4CCCN(C(=O)C5CC5)CC4)c3)n2C)c(-c2cc(F)c3c(c2C)CCCO3)c1[C@H](OC(C)(C)C)C(=O)O` (atropisomer, axis not shown) [Example 104], the IC50 is 37.5 nM.
Under `Cc1nc2c(cc(-c3ccnc(N4CCc5cc(-n6c(C)ccc6C)ccc5C4)c3)n2C)c(-c2cc(F)c3c(c2C)CCCO3)c1[C@H](OC(C)(C)C)C(=O)O` (atropisomer, axis not shown) [Example 106] stands 45 nM; under `Cc1nc2c(cc(-c3ccnc(N4CCCN(C(=O)C5CCOCC5)CC4)c3)n2C)c(-c2cc(F)c3c(c2C)CCCO3)c1[C@H](OC(C)(C)C)C(=O)O` (atropisomer, axis not shown) [Example 108], 131 nM; under `COc1ccccc1[C@H]1[C@@H]2CN(c3cc(-c4cc5c(-c6cc(F)c7c(c6C)CCCO7)c([C@H](OC(C)(C)C)C(=O)O)c(C)nc5n4C)ccn3)C[C@@H]21` (atropisomer, axis not shown) [Example 109], 121 nM.
The result for `Cc1nc2c(cc(-c3ccnc(N4C[C@@H]5CC[C@@H](C5)C4)c3)n2C)c(-c2cc(F)c3c(c2C)CCCO3)c1[C@H](OC(C)(C)C)C(=O)O` (atropisomer, axis not shown) [Example 111] reads 27.5 nM; that for `Cc1nc2c(cc(-c3ccnc(N4CCCN(C5CCOCC5)CC4)c3)n2C)c(-c2cc(F)c3c(c2C)CCCO3)c1[C@H](OC(C)(C)C)C(=O)O` (atropisomer, axis not shown) [Example 113], 20 nM; that for `Cc1nc2c(cc(-c3ccnc(N4CCCN(S(=O)(=O)C5CC5)CC4)c3)n2C)c(-c2cc(F)c3c(c2C)CCCO3)c1[C@H](OC(C)(C)C)C(=O)O` (atropisomer, axis not shown) [Example 114], 25 nM.
For the compound `Cc1nc2c(cc(-c3ccnc(N4CCN(C(=O)N(C)C)CC4)c3)n2C)c(-c2cc(F)c3c(c2C)CCCO3)c1[C@H](OC(C)(C)C)C(=O)O` (atropisomer, axis not shown) [Example 115], the IC50 is 15.6 nM.
In the case of `Cc1nc2c(cc(-c3ccnc(N4CCCN(C5CCC5)CC4)c3)n2C)c(-c2cc(F)c3c(c2C)CCCO3)c1[C@H](OC(C)(C)C)C(=O)O` (atropisomer, axis not shown) [Example 117], the IC50 came out at 39.1 nM.
In the case of `Cc1nc2c(cc(-c3ccnc(N4CCN(C5CC5)CC4)c3)n2C)c(-c2cc(F)c3c(c2C)CCCO3)c1[C@H](OC(C)(C)C)C(=O)O` (atropisomer, axis not shown) [Example 118], the half-inhibitory concentration (IC50) came to 15 nM.
The result for `COCCS(=O)(=O)N1CCCN(c2cc(-c3cc4c(-c5cc(F)c6c(c5C)CCCO6)c([C@H](OC(C)(C)C)C(=O)O)c(C)nc4n3C)ccn2)CC1` (atropisomer, axis not shown) [Example 119] reads 20 nM.
The result for `Cc1nc2c(cc(-c3ccnc(N4CC[C@@H](N(C)C)C4)c3)n2C)c(-c2cc(F)c3c(c2C)CCCO3)c1[C@H](OC(C)(C)C)C(=O)O` (atropisomer, axis not shown) [Example 120] reads 45 nM; that for `Cc1nc2c(cc(-c3ccnc(N4C[C@@H]5CC[C@H]4CN(C4COC4)C5)c3)n2C)c(-c2cc(F)c3c(c2C)CCCO3)c1[C@H](OC(C)(C)C)C(=O)O` (atropisomer, axis not shown) [Example 122], 11.6 nM.
Under `COCCC(=O)N1CCCN(c2cc(-c3cc4c(-c5cc(F)c6c(c5C)CCCO6)c([C@H](OC(C)(C)C)C(=O)O)c(C)nc4n3C)ccn2)CC1` (atropisomer, axis not shown) [Example 125] stands 41.5 nM.
Consider `Cc1nc2c(cc(-c3ccnc(N4CCN(C5CCOCC5)CC4)c3)n2C)c(-c2cc(F)c3c(c2C)CCCO3)c1[C@H](OC(C)(C)C)C(=O)O` (atropisomer, axis not shown) [Example 127], for which the IC50 turned out to be 3.6 nM.
Consider `Cc1nc2c(cc(-c3ccnc(N4CCCN(C5(C)COC5)CC4)c3)n2C)c(-c2cc(F)c3c(c2C)CCCO3)c1[C@H](OC(C)(C)C)C(=O)O` (atropisomer, axis not shown) [Example 128], for which the IC50 was determined as 10.3 nM.
